Counter-ions that a name gives are not always drawn.
Legend:
[1] = Tissue concentrations of bupivacaine enantiomers in sheep post-mortem after increasing bolus doses of racbupivacaine HCl until fatal outcome; type: in vivo
Procedure: (§1) Four sheep weighing 39-49 kg (mean 44, SD 4 kg) were given increasing bolus doses (from 40 mg) of racbupivacaine HCl These were administered at least 1 day apart via a PVC cannula until a fatal outcome resulted. The heart and brain were removed within 20 min of death to be analysed for bupivacaine concentration. The heart was removed by transection through the great vessels approximately 20 mm above the level of the aortic valve, and 20 mm below the caudal border of the right atrium. Blood was immediately expressed from the cardiac chambers, and representative samples of the left and right atrium and ventricle were obtained, blotted and stored frozen (-20° C.) until assay. The brain was removed by transection at the level of the lower border of the pons, blotted and stored frozen as for the heart tissue.
The variability in the fatal doses (80-200 mg) was reflected in the tissue concentrations measured post-mortem. Larger differences in the concentrations of both bupivacaine enantiomers in the atrium and ventricle were apparent.

[2] = chronic epidural and opioid infusions, 0.1 to 0.5% bupivacaine, cancer pain; cited from earlier work
[3] = surgical wound infiltrated before closure, 0.25%; cited from earlier work
[4] = some pain syndromes; cited from earlier work
[5] = Fatal dose of racbupivacaine HCl in sheep (increasing bolus doses until a fatal outcome); type: in vivo
Procedure: as §1

[6] = described in PCT/GB94/02249; cited from earlier work
[7] = Vanhoutte et al (1991); Denson et al (1992); cited from earlier work
[8] = sheep No. 1, fatal dose 80 mg racbupivacaine HCl
[9] = sheep No. 2, fatal dose 80 mg racbupivacaine HCl
[10] = sheep No. 3, fatal dose 200 mg racbupivacaine HCl
[11] = sheep No. 4, fatal dose 200 mg racbupivacaine HCl
[12] = levobupivacaine vs dexbupivacaine

Compound: CCCCN1CCCCC1C(=O)Nc1c(C)cccc1C (racemic) [racemic bupivacaine, 1-butyl-N-(2,6-dimethylphenyl)-2-piperidinecarboxamide]
- R:S ratio of tissue concentration, Atrium [1, 8]: 0.92
- R:S ratio of tissue concentration, Brain [1, 8]: 1.06
- R:S ratio of tissue concentration, Ventricle [1, 8]: 1.18
- R:S ratio of tissue concentration, Atrium [1, 9]: 1.08
- R:S ratio of tissue concentration, Brain [1, 9]: 1.08
- R:S ratio of tissue concentration, Ventricle [1, 9]: 1.05
- R:S ratio of tissue concentration, Atrium [1, 10]: 0.99
- R:S ratio of tissue concentration, Brain [1, 10]: 1.09
- R:S ratio of tissue concentration, Ventricle [1, 10]: 1.03
- R:S ratio of tissue concentration, Atrium [1, 11]: 1.02
- R:S ratio of tissue concentration, Brain [1, 11]: 1.08
- R:S ratio of tissue concentration, Ventricle [1, 11]: 1.03
- Bupivacaine clearance [2]: progressive reduction in bupivacaine clearance
- Control of post-operative pain [3]: effective in the control of post-operative pain
- Opioid requirements of patients recovering from herniorrhaphy [3]: reduce the opioid requirements
- Analgesic usefulness in chronic administration [4]: useful in chronic administration as an analgesic in some pain syndromes

Compound: CCCCN1CCCC[C@@H]1C(=O)Nc1c(C)cccc1C [dexbupivacaine]
- Uptake of enantiomers by ventricle and brain ([1]; both P=0.03 by the Students paired t test, four sheep): more (+)-(R)- than (-)-(S)-bupivacaine being taken up by these tissues
- Uptake of enantiomers by atrium ([1]; four sheep, difference R vs S): This was not so for the atrium
- Tissue concentration, Atrium [1, 8]: 5.70 µg/g
- Tissue concentration, Brain [1, 8]: 6.91 µg/g
- Tissue concentration, Ventricle [1, 8]: 9.93 µg/g
- Tissue concentration, Atrium [1, 9]: 3.94 µg/g
- Tissue concentration, Brain [1, 9]: 4.97 µg/g
- Tissue concentration, Ventricle [1, 9]: 7.70 µg/g
- Tissue concentration, Atrium [1, 10]: 17.9 µg/g
- Tissue concentration, Brain [1, 10]: 12.7 µg/g
- Tissue concentration, Ventricle [1, 10]: 45.6 µg/g
- Tissue concentration, Atrium [1, 11]: 21.5 µg/g
- Tissue concentration, Brain [1, 11]: 17.2 µg/g
- Tissue concentration, Ventricle [1, 11]: 34.1 µg/g

Compound: CCCCN1CCCCC1C(=O)Nc1c(C)cccc1C (racemic) [racbupivacaine HCl]
- Fatal doses (variability) ([5]; four sheep, increasing bolus doses): 80 to 200 mg
- Fatal dose ([5]; sheep No. 1, increasing bolus doses): 80 mg
- Fatal dose ([5]; sheep No. 2, increasing bolus doses): 80 mg
- Fatal dose ([5]; sheep No. 3, increasing bolus doses): 200 mg
- Fatal dose ([5]; sheep No. 4, increasing bolus doses): 200 mg

Compound: CCCCN1CCCC[C@H]1C(=O)Nc1c(C)cccc1C [levobupivacaine]
- Accumulation in the heart and brain [1, 12]: does not accumulate in the heart and brain as much as the other component (dexbupivacaine)
- Tissue uptake into ventricle and brain vs dexbupivacaine [1, 12]: less tissue uptake of levobupivacaine into ventricle and brain than dexbupivacaine
- Clearance ([1]; levobupivacaine vs dexbupivacaine, inferred from tissue uptake): improved clearance
- Tissue concentration, Atrium [1, 8]: 6.22 µg/g
- Tissue concentration, Brain [1, 8]: 6.53 µg/g
- Tissue concentration, Ventricle [1, 8]: 8.44 µg/g
- Tissue concentration, Atrium [1, 9]: 3.65 µg/g
- Tissue concentration, Brain [1, 9]: 4.59 µg/g
- Tissue concentration, Ventricle [1, 9]: 7.36 µg/g
- Tissue concentration, Atrium [1, 10]: 18.0 µg/g
- Tissue concentration, Brain [1, 10]: 11.7 µg/g
- Tissue concentration, Ventricle [1, 10]: 44.1 µg/g
- Tissue concentration, Atrium [1, 11]: 21.2 µg/g
- Tissue concentration, Brain [1, 11]: 16.3 µg/g
- Tissue concentration, Ventricle [1, 11]: 33.3 µg/g
- Cardiodepressant effect relative to racemic bupivacaine [6]: reduced cardiodepressant effect
- Cardiotoxicity relative to dexbupivacaine and racemic bupivacaine [7]: probably less cardiotoxic than dexbupivacaine and racemic bupivacaine

— patent US5955479A, “Levobupivacaine for managing chronic pain” (Darwin Discovery Ltd., priority 1993, dated 1999)
